Source: ChEMBL document CHEMBL4325859, “Research advances on anticancer activities of matrine and its derivatives: An updated overview” (Eur J Med Chem, 2019)
In brackets after ≈: the same amount, converted by molar mass.

Columns and labels:
[1] = system: MCF7; test: Antiproliferative activity against human MCF7 cells after 24 hrs relative to control; type: functional
[2] = system: HT-29; test: Growth inhibition of human HT-29 cells at 1 mg/ml by MTT assay relative to control; type: functional; settings: read-out: GI
[3] = system: U-266; test: Antiproliferative activity against human U266 cells after 48 hrs by MTT assay; type: functional, cell-based; settings: U-266, 48 h
[4] = system: LoVo; test: Antiproliferative activity against human LoVo cells after 72 hrs by MTT assay; type: functional, cell-based
[5] = system: A549; test: Antiproliferative activity against human A549 cells at 2 g/L after 48 hrs by MTT assay relative to control; type: functional
[6] = Growth inhibition of human GRC1 cells at 1 g/L after 48 hrs by MTT assay relative to control; type: functional; settings: read-out: GI
[7] = system: MCF7; test: Induction of apoptosis in human MCF7 cells at 0.25 to 2 mg/ml (reference value: 1.1 +/- 0.08%); type: functional
[8] = system: HOS; test: Growth inhibition of human HOS cells at 3.2 mg/ml after 48 hrs by MTT assay relative to control; type: functional; settings: read-out: GI
[9] = system: HT-29; test: Synergistic growth inhibition of human HT-29 cells at 0.5 mg/ml cotreated with 2.5 ug/ml irinotecan by MTT assay relative to control; type: functional
[10] = system: LoVo; test: Antiproliferative activity against human LoVo cells after 24 hrs by MTT assay; type: functional, cell-based
[11] = system: RPMI-8226; test: Induction of apoptosis in human RPMI8226 cells at 1000 mg/L after 48 hrs by Annexin V/propidium iodide staining based flow cytometry (reference value: 3.02 +/- 1.19%); type: functional
[12] = system: BXPC-3; test: Induction of apoptosis in human BxPC3 cells at 1.25 mg/ml by flow cytometry (reference value: 2.81%); type: functional
[13] = system: HT-29; test: Growth inhibition of human HT-29 cells at 4 ml/L after 36 hrs by MTT assay relative to control; type: functional
[14] = system: SiHa; test: Antiproliferative activity against human SiHa cells after 48 hrs by CCK8 assay; type: functional, cell-based
[15] = system: UMR108; test: Growth inhibition of rat UMR108 cells assessed as cell proliferation at 0.5 mg/ml after 48 hrs by MTT assay (reference value: 0.404 +/- 0.008%); type: functional; settings: UMR108, 48 h, read-out: Activity
[16] = system: KYSE-150 cell line; test: Antiproliferative activity against human KYSE-150 cells after 24 hrs by MTT assay; type: functional, cell-based; settings: KYSE-150, 24 h
[17] = system: A549; test: Antiproliferative activity against human A549 cells at 1.5 g/L after 12 to 48 hrs by MTT assay relative to control; type: functional
[18] = Antiproliferative activity against human GBC-SD cells after 24 hrs by MTT assay; type: functional, cell-based
[19] = system: SGC-7901; test: Induction of apoptosis in human SGC7901 cells at […] after 48 hrs by propidium iodide staining based flow cytometry (reference value: 3.54 +/- 0.47%); type: functional
[20] = system: UMR108; test: Growth inhibition of rat UMR108 cells assessed as cell proliferation at 1 mg/ml after 48 hrs by MTT assay (reference value: 0.404 +/- 0.008%); type: functional; settings: UMR108, 48 h, read-out: Activity
[21] = system: KYSE-150 cell line; test: Antiproliferative activity against human KYSE-150 cells assessed as cell viability at 2.5 mg/ml after 24 hrs by MTT assay relative to control; type: functional; settings: KYSE-150, 24 h, read-out: Activity
[22] = system: U2OS; test: Growth inhibition of human U2OS cells at 0.8 mg/ml after 48 hrs by MTT assay relative to control; type: functional; settings: read-out: GI
[23] = Growth inhibition of human GRC1 cells at 0.8 g/L after 24 hrs by MTT assay relative to control; type: functional; settings: read-out: GI
[24] = system: LoVo; test: Antiproliferative activity against human LoVo cells after 48 hrs by MTT assay; type: functional, cell-based
[25] = Growth inhibition of human GRC1 cells at 0.5 g/L after 72 hrs by MTT assay relative to control; type: functional; settings: read-out: GI
[26] = system: HT-29; test: Growth inhibition of human HT-29 cells at 8 ml/L after 48 hrs by MTT assay relative to control; type: functional
[27] = system: C-33-A; test: Induction of apoptosis in human C33A cells at 25 ug/ml after 48 hrs by Annexin V-FITC/propidium iodide staining based flow cytometry relative to control; type: functional
[28] = system: HT-29; test: Growth inhibition of human HT-29 cells at 16 ml/L after 48 hrs by MTT assay relative to control; type: functional
[29] = Growth inhibition of human GRC1 cells at 0.3 g/L after 24 hrs by MTT assay relative to control; type: functional; settings: read-out: GI
[30] = system: D341 cell line; test: Growth inhibition of human D341 cells at 1 mg/ml after 72 hrs by CCK8 assay relative to control; type: functional; settings: D341, 72 h, read-out: GI
[31] = system: HT-29; test: Synergistic growth inhibition of human HT-29 cells at 1 mg/ml cotreated with 5 ug/ml irinotecan by MTT assay relative to control; type: functional
[32] = system: HT-29; test: Antiproliferative activity against human HT-29 cells by MTT assay; type: functional, cell-based
[33] = system: HeLa; test: Induction of apoptosis in human HeLa cells at 25 ug/ml after 48 hrs by Annexin V-FITC/propidium iodide staining based flow cytometry relative to control; type: functional
[34] = Growth inhibition of human GRC1 cells at 1 g/L after 72 hrs by MTT assay relative to control; type: functional; settings: read-out: GI
[35] = system: CCRF-CEM; test: Antiproliferative activity against human CCRF-CEM cells after 24 hrs by WST1 assay; type: functional, cell-based
[36] = system: KYSE-150 cell line; test: Antiproliferative activity against human KYSE-150 cells assessed as cell viability at 0.5 mg/ml after 24 hrs by MTT assay relative to control; type: functional; settings: KYSE-150, 24 h, read-out: Activity
[37] = system: 4T1; test: Antiproliferative activity against mouse 4T1 cells after 48 hrs by MTT assay; type: functional, cell-based; settings: 4T1, 48 h
[38] = system: UMR108; test: Growth inhibition of rat UMR108 cells assessed as cell proliferation at 1.5 mg/ml after 72 hrs by MTT assay (reference value: 0.403 +/- 0.009%); type: functional; settings: UMR108, 72 h, read-out: Activity
[39] = system: D341 cell line; test: Growth inhibition of human D341 cells at 1.5 mg/ml after 72 hrs by CCK8 assay relative to control; type: functional; settings: D341, 72 h, read-out: GI
[40] = Growth inhibition of human GRC1 cells at 1.5 g/L after 48 hrs by MTT assay relative to control; type: functional; settings: read-out: GI
[41] = system: PANC-1; test: Antiproliferative activity against human PANC1 cells after 72 hrs by MTT assay; type: functional, cell-based; settings: PANC-1, 72 h
[42] = system: Bel-7402; test: Antiproliferative activity against human Bel7402 cells after 48 hrs by MTT assay; type: functional, cell-based; settings: Bel-7402, 48 h
[43] = Growth inhibition of human GRC1 cells at 0.8 g/L after 96 hrs by MTT assay relative to control; type: functional; settings: read-out: GI
[44] = Growth inhibition of human GRC1 cells at 0.3 g/L after 96 hrs by MTT assay relative to control; type: functional; settings: read-out: GI
[45] = system: HT-29; test: Growth inhibition of human HT-29 cells at 2 ml/L after 36 hrs by MTT assay relative to control; type: functional
[46] = Growth inhibition of human GRC1 cells at 0.8 g/L after 72 hrs by MTT assay relative to control; type: functional; settings: read-out: GI

O=C1CCC[C@@H]2[C@H]3CCCN4CCC[C@@H](CN12)[C@@H]34 [MATRINE]
Activity [1]: 6.01 - 37.01% | inhibition of growth at 1000 µg/mL [2]: 35.9% | IC50 [3]: 1580 µg/mL (≈ 6.36 mM) | IC50 [4]: 1.66 mM | Activity [5]: 20% | inhibition of growth at 1000 µg/mL [6]: 25.4% | Activity [7]: 4.17 - 19.63% | inhibition of growth at 3200 µg/mL [8]: 57% | growth inhibition (GI) [9]: 57.25% | IC50 [10]: 4.63 mM | Activity [11]: 18.48% | Activity [12]: 33.67% | growth inhibition (GI) [13]: 42.48% | IC50 [14]: 5.76 mM | growth at 500 µg/mL [15]: 0.313% | IC50 [16]: 7.82 mM | Activity [17]: 30% | IC50 [18]: 3.6 mM | Activity [19]: 34.59% | growth at 1000 µg/mL [20]: 0.249% | viability at 2500 µg/mL [21]: 40.4% | inhibition of growth at 800 µg/mL [22]: 10% | inhibition of growth at 800 µg/mL [23]: 20.5% | IC50 [24]: 2.97 mM | inhibition of growth at 500 µg/mL [25]: 21.9% | growth inhibition (GI) [26]: 68.29% | Activity [27]: 5.31% | growth inhibition (GI) [28]: 75.75% | inhibition of growth at 300 µg/mL [29]: 6.3% | inhibition of growth at 1000 µg/mL [30]: 28.3% | growth inhibition (GI) [31]: 87.61% | IC50 [32]: 0.0286 mM | Activity [33]: 8.91% | inhibition of growth at 1000 µg/mL [34]: 29.2% | IC50 [35]: 11.7 mM | viability at 500 µg/mL [36]: 82.2% | IC50 [37]: 1110 µg/mL (≈ 4.47 mM) | growth at 1500 µg/mL [38]: 0.147% | inhibition of growth at 1500 µg/mL [39]: 47.5% | inhibition of growth at 1500 µg/mL [40]: 32% | IC50 [41]: 3.66 mM | IC50 [42]: 3.22 mM | inhibition of growth at 800 µg/mL [43]: 36.2% | inhibition of growth at 300 µg/mL [44]: 18.4% | growth inhibition (GI) [45]: 22.06% | inhibition of growth at 800 µg/mL [46]: 25.4%
